Test results as given in patent US20260207632A1, “C[…] THERAPY” (KINGDOM THERAPEUTICS LIMITED, priority 2022, published 2026).

Tests used:
rat VPA model of autism [1] = assay: Irritability-like behaviour: bottle-brush test (P30) in VPA rat model; assay type: in vivo; set-up: key to bottle brush irritability: +: improvement; Ø: no change
Description: (§1) In the first study, a sub-chronic 8-day dosing schedule was employed with the test compound CBD administered alone (10, 30 and 60 mg/kg, p.o. VPA/CBD; dose volume 5 ml/kg). Control animals were administered sterile saline (0.9% w/v, i.p.) in utero and the vehicle control (ethanol: Kolliphor HS-15:0.9% saline (1:1:18, v/v/v) p.o. VEH/VEH). The test compound and vehicle control were administered to the animals once daily for 7 days prior to, and once again on each day of behavioural assessment, 60 minutes prior to test which consisted of a battery of behavioural paradigms: P30 social play and bottle brush test, P31-32 open field exploratory behaviour. A reference positive control, the atypical antipsychotic risperidone (0.125 mg/kg, i.p., once per day for 8 days prior to and for duration of behavioural testing), was included in study one for comparison. Subsequent to behavioural analysis the effect of CBD on gastrointestinal permeability was evaluated four hours following oral administration of fluorescein isothiocyanate-labelled dextran measured in plasma on postnatal day 33. On postnatal day 34, 60 minutes post a final treatment with the test agents, animals were humanely euthanised and samples collected to evaluate inflammatory biomarkers, gastrointestinal function and histology. 5 In the second study, the sub-optimal dose of CBD (30 mg/kg, p.o.) was evaluated in combination with administration of THC at increasing concentration (0.75, 1.5 and 3 mg/kg, p.o. VPA/CBD+THC). Comparison was made to CBD administered alone at the sub-optimal and effective doses (30 and 60 mg/kg, p.o.) and to vehicle controls as per study one. Behavioural and gastrointestinal readouts were examined as per study one with terminal samples collected on the final day of the experiment.
To test irritability-like behaviour we employed the bottle-brush test modified for rats (Riittinen et al. 1986). Irritability-like behaviour was examined by measuring aggressive and defensive responses during the bottle-brush test carried out in juvenile animals immediately after play behaviour evaluation at P30. Irritability-like behaviour testing was performed under dark conditions with a red light and infrared camera recording (Kononoff et al., 2018). Testing consisted of 10 trials per rat in plastic cages (377×325×170 mm) with fresh bedding. During each trial, the rat was placed at the back of the cage. A bottle-brush was rotated toward the animal's whiskers (from the front of the cage). The brush was rotated around the whiskers of the rat for approximately 1 second. The brush was then rotated back to the front of the cage where it hung vertically for approximately 2 seconds, during which behavioural responses were recorded. An intertrial interval of 10 seconds was used, with each new trial started with the animal returned to the back of the cage. All testing was conducted in the morning, starting at 09.00 and concluded before 12.00.
Employing video analysis of the test the following were scored as aggressive responses: smelling the brush, biting the brush (during the initial phase of rotating the brush forward and back to the starting position), boxing the target, following the brush, exploring the brush (using paws or mouth to manipulate the brush without biting or boxing), mounting the brush, and delayed biting (during the 2 s that the brush hung at the starting position). The following were scored as defensive responses: escaping from the brush, digging, burying, jumping, climbing, vocalization, freezing, and grooming. Grooming and digging were additionally recorded during the 10 second intertrial intervals. Frequency and total time engaged in each behaviour and the sum of aggressive and defensive behaviours, referred to as the irritability score (Kononoff et al, 2018), were recorded.

rat VPA model of autism [2] = assay: Gastrointestinal permeability (P33), FITC-dextran in plasma, VPA rat model; assay type: in vivo; set-up: key to gastrointestinal permeability: +: improvement; Ø: no change
Description: as §1
This assay is an indirect measure of total intestinal permeability. Animals are given an oral gavage of a fluorescently labelled small molecule (FITC-dextran), and at a subsequent timepoint the difference in fluorescence pre- and post-gavage is measured in plasma (Thevaranjan et al., 2017). Prior to gavage, a 50 μl sample of blood was collected by tail vein puncture. Animals then received 500 μl of 80 mg/ml FITC dextran (4 kDa Merck Ireland) by oral gavage and four hours later a second tail vein blood sample was collected. Tail vein blood sampling is facilitated through use of local anaesthetic EMLA cream following sterilisation of the tail. Blood samples were treated with 15% v/v acid-citrate-dextrose solution as an anticoagulant (38 mM citric acid, 107 mM sodium citrate, 136 mM dextrose), then mixed thoroughly by inversion and centrifuged at 5,000 rpm for 10 minutes. The plasma supernatant was transferred to microfuge tubes stored protected from light at 4° C. Each pre- and post-test plasma sample was diluted 1:5 in 1×PBS and a 100 μl aliquot was transferred to a 96-well plate. Readings of relative fluorescence units by a spectrophotometer were measured in duplicate and averaged. Fluorescence was determined at 530 nm with excitation at 485 nm. Permeability was expressed as relative fluorescence units between the groups being compared, determined by subtracting the PBS blank fluorescence from all samples and then subtracting the post-gavage fluorescence from the pre-gavage fluorescence. Treatment groups were prepared and analysed according to a blocked design to prevent bias.

[3] = cohort two, CBD 30 mg/kg, THC 0 mg/kg p.o.
[4] = cohort two, CBD 60 mg/kg, THC 0 mg/kg p.o.
[5] = study one, CBD 10 mg/kg, vs VPA/VEH
[6] = study one, CBD 30 mg/kg, vs VPA/VEH
[7] = study one, CBD 60 mg/kg, vs VPA/VEH
[8] = cohort one, risperidone 0.125 mg/kg i.p.
[9] = study one, risperidone 0.125 mg/kg i.p.

C=C(C)[C@@H]1CCC(C)=C[C@H]1c1c(O)cc(CCCCC)cc1O [CBD, cannabidiol] was tested, and the bottle brush irritability (rat VPA model of autism [1]; cohort one, CBD 10 mg/kg p.o.) was “Ø”, the bottle brush irritability (rat VPA model of autism [1]; cohort one, CBD 30 mg/kg p.o.) was “+” and the bottle brush irritability (rat VPA model of autism [1]; cohort one, CBD 60 mg/kg p.o.) was “+”. The bottle brush irritability (rat VPA model of autism [1]; [3]) was “Ø”, the bottle brush irritability (rat VPA model of autism [1]; [4]) was “+” and the “increase in aggressive responses, bottle brush” value (from here on “increase in aggressive responses”) (rat VPA model of autism [1]; [5]) was “significantly reduced”. For the same molecule, the “irritability score (combined aggressive and defensive behaviours)” value (shortened to “irritability score”) (rat VPA model of autism [1]; [5]) was “significantly reduced”, the “irritability score” value (rat VPA model of autism [1]; [6]) was “significantly reduced” and the “increase in aggressive responses” value (rat VPA model of autism [1]; [7]) was “significantly reduced”. The “irritability score” value (rat VPA model of autism [1]; [7]) was “significantly reduced”, the “increase in aggressive responses” value (rat VPA model of autism [1]; study two, CBD 30 mg/kg) was “without effect” and the “irritability score” value (rat VPA model of autism [1]; study two, CBD 30 mg/kg) was “without effect”. The “increase in aggressive responses” value (rat VPA model of autism [1]; study two, CBD 60 mg/kg) was “significantly reduced”, the “irritability score” value (rat VPA model of autism [1]; study two, CBD 60 mg/kg) was “significantly reduced” and the gastrointestinal permeability (rat VPA model of autism [2]; cohort one, CBD 10 mg/kg p.o.) was “Ø”. The gastrointestinal permeability (rat VPA model of autism [2]; cohort one, CBD 30 mg/kg p.o.) was “+”, the gastrointestinal permeability (rat VPA model of autism [2]; cohort one, CBD 60 mg/kg p.o.) was “+” and the gastrointestinal permeability (rat VPA model of autism [2]; [3]) was “Ø”. The gastrointestinal permeability (rat VPA model of autism [2]; [4]) was “+”, the “increase in FITC dextran fluorescence (gastrointestinal permeability)” value (from here on “increase in FITC dextran fluorescence”) (rat VPA model of autism [2]; [6]) was “significantly prevented” and the “increase in FITC dextran fluorescence” value (rat VPA model of autism [2]; [7]) was “significantly prevented”. For the same molecule, the “increase in FITC dextran fluorescence” value (rat VPA model of autism [2]; study two, CBD 30 mg/kg) was “without effect” and the “increase in FITC dextran fluorescence” value (rat VPA model of autism [2]; study two, CBD 60 mg/kg) was “significantly prevented”.

Cc1nc2n(c(=O)c1CCN1CCC(c3noc4cc(F)ccc34)CC1)CCCC2 [Risperidone, risperidone] was tested, and the bottle brush irritability (rat VPA model of autism [1]; [8]) was “+”, the “increase in aggressive responses” value (rat VPA model of autism [1]; [9]) was “significantly reduced” and the “irritability score” value (rat VPA model of autism [1]; [9]) was “significantly reduced”. The gastrointestinal permeability (rat VPA model of autism [2]; [8]) was “Ø” and the “increase in FITC dextran fluorescence” value (rat VPA model of autism [2]; [9]) was “without effect”.
